Values quoted from earlier work as cited in patent publication US10098846B2, “Drug-containing particulate composition with cationic agent, associated medical devices, and methods for treatment” (Surmodics, Inc., priority 2016, dated 2018).

Which “solubility in N,N-dimethylformamide” value (N,N-dimethylformamide) does the source give for CO[C@H]1C[C@@H]2CC[C@@H](C)[C@@](O)(O2)C(=O)C(=O)N2CCCC[C@H]2C(=O)O[C@H]([C@H](C)C[C@@H]2CC[C@@H](O)[C@H](OC)C2)CC(=O)[C@H](C)/C=C(\C)[C@@H](O)[C@@H](OC)C(=O)[C@H](C)C[C@H](C)/C=C/C=C/C=C/1C [Rapamycin, rapamycin] here?
Its value is “soluble”.

What about the solubility in acetone (acetone) of the same compound?
Its solubility in acetone is “soluble”.

And the solubility in ether (ether)?
Its solubility in ether is “soluble”.

And the solubility in water (water)?
Its solubility in water is “insoluble”.
